Measurements as given in patent US20070196484A1, “Poorly water-soluble drug-containing solid formulation” (priority 2004, published 2007).
Values after ≈ are worked out from the molar mass of the structure shown.

What was measured:
[1] = Solubility of bisacodyl in the co-existence of dioctyl sodium sulfosuccinate; format: physicochemical; conditions: for solubility at 5 h: thermodynamic from solid
Description: Variation in solubility of bisacodyl was studied in the co-existence of bisacodyl and dioctyl sodium sulfosuccinate. Bisacodyl was dispersed in purified water and the dispersion was shaken under given conditions for 5 hours. The resulting liquid was centrifuged at 3000 min^−1 for 5 min. Then, the supernatant was collected and the amount of dissolved bisacodyl was determined by HPLC. In a similar manner, bisacodyl was dispersed in solutions containing dioctyl sodium sulfosuccinate at 0.07%, 0.14% and 0.35%. Each dispersion was shaken and centrifuged at 3000 min^−1 for 5 min. Then, the supernatant was collected and the amount of dissolved bisacodyl was determined by HPLC.

[2] = test system: SD male rats; assay: Intra-ileal administration test, onset of catharsis; format: in vivo, rat; conditions: bisacodyl 2 mg/kg, DSS 3.2 mg/kg, observed 24 hours, FIG. 3
Description: (§1) SD male rats were used in 10 animals per group. Test substances used were bisacodyl alone (2 mg/kg), DSS alone (3.2 mg/kg) and bisacodyl (2 mg/kg)+DSS (3.2 mg/kg).
A rat underwent laparotomy under ether anesthesia and a test substance was injected via a syringe into an ileum at 20 cm to the mouth from the ileocecum at a dose of 1 mL/kg rat weight.

[3] = test system: SD male rats; assay: Oral administration test, onset of catharsis; format: in vivo, rat; conditions: bisacodyl 2 mg/kg, DSS 3.2 mg/kg, observed 24 hours, FIG. 3
Description: as §1

SMILES	solubility at 5 h ([1]; 0.07% dioctyl sodium sulfosuccinate aqueous solution, aqueous with cosolvent or surfactant or cyclodextrin, Sample 1: 0.07% DSS aq.) [µg/mL]	solubility at 5 h ([1]; 0.14% dioctyl sodium sulfosuccinate aqueous solution, aqueous with cosolvent or surfactant or cyclodextrin, Sample 2: 0.14% DSS aq.) [µg/mL]	solubility at 5 h ([1]; 0.35% dioctyl sodium sulfosuccinate aqueous solution, aqueous with cosolvent or surfactant or cyclodextrin, Sample 3: 0.35% DSS aq.) [µg/mL]	Proportion to control (solubility of bisacodyl) ([1]; Sample 1: 0.07% DSS aq.) [%]	Proportion to control (solubility of bisacodyl) ([1]; Sample 2: 0.14% DSS aq.) [%]	Proportion to control (solubility of bisacodyl) ([1]; Sample 3: 0.35% DSS aq.) [%]	solubility at 5 h ([1]; Control: purified water, 0% DSS, shaken 5 hours) [µg/mL]	Cathartic effect (catharsis incidence) [2]	Cathartic effect (catharsis incidence) [3]
CC(=O)Oc1ccc(C(c2ccc(OC(C)=O)cc2)c2ccccn2)cc1 [Bisacodyl]	3.62 (≈ 10 µM)	4.51 (≈ 12.5 µM)	12.7 (≈ 35.1 µM)	191.5	238.6	672.0	1.89 (≈ 5.23 µM)		
CCCCC(CC)COC(=O)CC(C(=O)OCC(CC)CCCC)S(=O)(=O)[O-].[Na+] (stereo not drawn) [DSS, Dioctyl sodium sulfosuccinate]								cathartic effect was not observed	cathartic effect was not observed
